Where two headings read alike, the source gives them in different places.
Columns and labels:
Rat = settings: cited from earlier work
[1] = test system: Actinomyces viscosus T14V; format: cell-based; settings: for % Red. / Bact. Count (Log 10): Table VIII
Source text: The SIKT test is a basic microbiological test which incorporates a fixed contact time. […] The system is then neutralized to inhibit further antimicrobial activity. The surviving bacteria are enumerated using plate count methodology. The reduction in counts compared to a water control is the basis for expressing activity. A three log reduction is usually considered significant.

[2] = oral, values reported in the literature
[3] = Table VI, rinses, with and without Carbopol polymers

Row | SMILES | LD 50 (Oral, Rat) (Rat; [2]) [mg/kg] | % Red. ([1]; concentration 0.01) [%] | Bact. Count (Log 10) ([1]; concentration 0.01) | % Red. ([1]; concentration 0.02) [%] | Bact. Count (Log 10) ([1]; concentration 0.02) | % Red. ([1]; concentration 0.04) [%] | Bact. Count (Log 10) ([1]; concentration 0.04) | % Red. ([1]; concentration 0.06) [%] | Bact. Count (Log 10) ([1]; concentration 0.06) | % Red. ([1]; concentration 0.07) [%] | Bact. Count (Log 10) ([1]; concentration 0.07) | % Red. ([1]; concentration 0.08) [%] | Bact. Count (Log 10) ([1]; concentration 0.08) | also measured
1 | CC(C)=CCC[C@](C)(O)C1CC=C(C)CC1 (stereo partly drawn) [Bisabolol] | 5000 |  |  |  |  |  |  |  |  |  |  |  |  | 
2 | [H]/N=C(\N/C(=N/[H])NCCCCCCNC(=N)NC(=N)Nc1ccc(Cl)cc1)Nc1ccc(Cl)cc1 [Chlorhexidine, reference compound] |  |  |  |  |  |  |  |  |  |  |  |  |  | % Reduction [1, 3]: > 99.00%; Bacterial Count (log 10) [1, 3]: 4.52 log 10
3 | CC(C)=CCCC(C)=CCCC(C)=CCO [Farnesol] |  | > 99.99 | < 2.00 | > 99.99 | < 2.00 | > 99.99 | < 2.00 | > 99.99 | < 2.00 | > 99.99 | < 2.00 | > 99.99 | < 2.00 | % Red. ([1]; concentration 0.005): 99.9%; Bact. Count (Log 10) ([1]; concentration 0.005): 3.66 Log 10; % Red. ([1]; concentration 0.0075): > 99.99%; Bact. Count (Log 10) ([1]; concentration 0.0075): 2.50 Log 10
4 | COC(=O)c1ccccc1O [Methyl salicylate, reference compound] |  |  |  |  |  |  |  |  |  |  |  |  |  | LD 50 (Oral, Rat) (Rat; in vivo, po): 887 mg/kg
5 | C=CC(C)(O)CCC=C(C)CCC=C(C)C (stereo not drawn) [Nerolidol] | > 5000 |  |  |  |  |  |  |  |  |  |  |  |  | 
6 | Cc1ccc(C(C)C)c(O)c1 [Thymol, reference compound] |  | 0 | 6.67 | 0 | 6.71 | 0 | 6.23 | 99.99 | 3.93 | > 99.99 | < 2.00 | > 99.99 | < 2.00 | 

Source: patent US5116602A, “Antiplaque oral compositions” (Colgate-Palmolive Company, priority 1989, dated 1992)
